Data reported in US20050226913A1, “Article for inhibiting microbial growth in physiological fluids” (Eastman Kodak Company, priority 2004, published 2005).

Assay: Stability constant (log βn) of ligand with Fe(III)
Conditions: Fe(III) (target) minus Ca (interfering), from Table 1
From the text: Herein the stability constant for the reaction of a metal-ion (M) and a sequestrant or ligand (L) is defined as follows: M+nL⇄MLn
where the stability constant is βn=[MLn]/[M][L]^n, wherein [MLn] is the concentration of “complexed” metal-ion, [M] is the concentration of free (uncomplexed) metal-ion and [L] is the concentration of free ligand. The log of the stability constant is log βn, and n is the number of ligands, which coordinate with the metal.

O=C(O)CN(CCN(CC(=O)O)CC(=O)O)CCN(CC(=O)O)CC(=O)O [DTPA, diethylenetriaminepentaacetic acid]
selectivity: difference between the log stability constants: 17.2
